Source: PubChem BioAssay (NCI)
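Values below derive from 48-hour exposures of cells grown in 96-well plates, with endpoints linearly interpolated between the two concentrations bracketing the appropriate inhibition level. Here, GI50 denotes the concentration required for 50% inhibition of growth. TGI: concentration producing complete growth inhibition.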

Assays:
Assay in all cases: NCI tumour cell line growth inhibition, 48 h
SNB-19 CNS = system: SNB-19 CNS
HCT-116 colon = system: HCT-116 colon
OVCAR-3 ovarian = system: OVCAR-3 ovarian
HL-60(TB) leukemia = system: HL-60(TB) leukemia
SK-OV-3 ovarian = system: SK-OV-3 ovarian
KM12 colon = system: KM12 colon
UO-31 renal = system: UO-31 renal
OVCAR-5 ovarian = system: OVCAR-5 ovarian
NCI/ADR-RES ovarian = system: NCI/ADR-RES ovarian

Row | SMILES | TGI (SNB-19 CNS) | TGI (HCT-116 colon) | TGI (OVCAR-3 ovarian) | TGI (HL-60(TB) leukemia) | TGI (SK-OV-3 ovarian) | TGI (KM12 colon) | TGI (UO-31 renal) | TGI (OVCAR-5 ovarian) | GI50 (NCI/ADR-RES ovarian) | TGI (NCI/ADR-RES ovarian) | GI50 (SNB-19 CNS) | GI50 (HCT-116 colon) | GI50 (OVCAR-3 ovarian) | GI50 (HL-60(TB) leukemia) | GI50 (SK-OV-3 ovarian) | GI50 (KM12 colon) | GI50 (UO-31 renal) | GI50 (OVCAR-5 ovarian)
1 | c1cncc(C2c3[nH]c4ccccc4c3CCN2CCCN2CCCCC2)c1 (stereo unspecified) | > 100 µM | > 100 µM | > 100 µM | > 100 µM | > 100 µM | > 100 µM | > 100 µM | > 100 µM |  |  |  |  |  |  |  |  |  | 
2 | CSc1nc(NC2OCC(OC(C)=O)C(OC(C)=O)C2OC(C)=O)c(N=CC=Nc2c(NC3OCC(OC(C)=O)C(OC(C)=O)C3OC(C)=O)nc(SC)n(C)c2=O)c(=O)n1C (stereo unspecified) | > 100 µM | > 100 µM | > 100 µM | > 100 µM | > 100 µM | > 100 µM | > 100 µM | > 100 µM |  |  |  |  |  |  |  |  |  | 
3 | CSc1ccc(-c2cn3ccsc3n2)c(O)c1 | > 100 µM | > 67.3 µM | > 100 µM | > 63.1 µM | > 100 µM | > 100 µM | > 100 µM | > 100 µM |  |  |  |  |  |  |  |  |  | 
4 | COc1cc2[nH]c(C(=O)c3cc(OC)c(OC)c(OC)c3)c(N)c2cc1C#CCO | > 100 µM | > 100 µM | 0.243 µM | 0.956 µM | > 100 µM | > 100 µM | 59 µM | > 100 µM | 2.22 µM | 32.6 µM | 0.41 µM | 0.298 µM | 0.0491 µM | 0.313 µM | 0.482 µM | 0.334 µM | 0.476 µM | 3.63 µM
5 | CN1C(=O)n2c(nc3ccccc32)C(N=[N+]=[N-])(N=[N+]=[N-])C1=O (stereo unspecified) | > 100 µM | > 100 µM | > 100 µM | > 100 µM | > 100 µM | > 100 µM | > 100 µM | > 100 µM |  |  |  |  |  |  |  |  |  | 
6 | CCOC(=O)/C(=C/c1ccc(OC)c(OC)c1)C(=O)c1ccccc1 | 30.1 µM |  | 33.6 µM |  | 73.1 µM | 31.5 µM | 27.5 µM | 40.6 µM |  |  |  |  |  |  |  |  |  | 
7 | CCN1C(C)=NC2C(=O)c3ccccc3C(=O)C21 (stereo unspecified) | > 100 µM | > 100 µM | > 100 µM | > 100 µM |  |  | > 100 µM |  |  |  |  |  |  |  |  |  |  | 
8 | CC[O-].CC[O-].[O-]c1ccccc1C=Nc1ccccc1.[O-]c1ccccc1C=Nc1ccccc1.[Ti+4] | > 100 µM | > 100 µM | > 100 µM | > 100 µM | > 100 µM | > 100 µM | > 100 µM | > 100 µM |  |  | > 100 µM | 31.8 µM | > 100 µM | > 100 µM | > 100 µM | 26.7 µM | > 100 µM | > 100 µM
9 | CN1CCC23c4c5ccc(O)c4OC2C(=NN=C2CCC4(O)C6Cc7ccc(O)c8c7C4(CCN6C)C2O8)CCC3(O)C1C5 (stereo unspecified) | > 100 µM |  | > 100 µM | > 100 µM | > 100 µM | > 100 µM | > 100 µM | > 100 µM |  |  |  |  |  |  |  |  |  | 
10 | C/C(CC(=O)CCCC(=O)Nc1ccc(Cl)cc1Cl)=N/NC(=O)CC#N | > 100 µM | > 100 µM | > 100 µM | > 100 µM | > 100 µM | > 100 µM | > 100 µM | > 100 µM |  |  |  |  |  |  |  |  |  | 
11 | C[C@]12CCC[C@H](OC=O)C1(O)C[C@H](C(=O)O)CC2 (stereo partly specified) | > 100 µM | > 100 µM | > 100 µM | > 100 µM | > 100 µM | > 100 µM | > 100 µM | > 100 µM |  |  |  |  |  |  |  |  |  | 
12 | C=C1C(=O)O[C@@H]2[C@H]1CC[C@H](C)[C@]1(O)CCC(=O)[C@@]21C | > 10 µM | > 10 µM | > 10 µM | > 10 µM | > 10 µM | > 10 µM | 4.76 µM |  |  | > 10 µM |  |  |  |  |  |  |  | 
13 | COC1=CC(=O)c2ccc(C(C)C)cc2C1(C)C1=NC(C)(C)CO1 (stereo unspecified) | > 100 µM | > 100 µM | > 100 µM | > 100 µM | > 100 µM | > 100 µM | > 100 µM |  |  |  |  |  |  |  |  |  |  | 
14 | CCC[CH2][Sn]1([CH2]CCC)[O]C(c2ccccn2)S(=O)(=O)[O]1 (stereo unspecified) | 23.5 µM | 22.9 µM | 11.6 µM | 5.04 µM | 30.9 µM | 26 µM | 26.6 µM |  |  |  | 11.4 µM | 11 µM | 3.06 µM | 2.14 µM | 16.8 µM | 12.7 µM | 13.6 µM | 
15 | CC1(C)CCC(=O)c2c(O)ccc(O)c21 | > 100 µM | > 100 µM | > 100 µM |  | > 100 µM | > 100 µM | > 100 µM | > 100 µM |  |  |  |  |  |  |  |  |  | 
16 | COc1cccc(/C=C(/C(=O)O)c2cc(OC)c(OC)c(OC)c2)c1 | > 100 µM | > 100 µM | > 100 µM | > 100 µM |  | > 100 µM | > 100 µM |  |  |  |  |  |  |  |  |  |  | 
17 | CC1=CC2=C(OCO1)C(=O)c1ccccc1C2=O | 34 µM | 19.6 µM | 13.3 µM | 23.1 µM | 48.9 µM | 21.9 µM | 28.7 µM | 10.8 µM |  | 9.94 µM |  |  |  |  |  |  |  | 
